Laboratory results from publication PMC4702177, “Discovering new mTOR inhibitors for cancer treatment through virtual screening methods and in vitro assays” (Scientific Reports, 2016).
Where “and” joins values, the source holds several entries; their conditions need not be identical. Equal entries are not always repeated.

Assays:
[1] = molecular target: T1, human recombinant mTOR kinase (Homo sapiens, UniProt P42345); assay: In vitro mTOR kinase assay (K-LISA ELISA, p70S6K-GST substrate); assay type: biochemical; conditions: for inhibition at 10 µM: triplicate measurements; for IC50: mean ± SD of triplicate measurements
T1 construct: a purified recombinant mTOR fragment (amino acids 1360-2549, CBA104-1KIT from Calbiochem); purchased Calbiochem CBA104-1KIT
T1 sequence (P42345 1360-2549): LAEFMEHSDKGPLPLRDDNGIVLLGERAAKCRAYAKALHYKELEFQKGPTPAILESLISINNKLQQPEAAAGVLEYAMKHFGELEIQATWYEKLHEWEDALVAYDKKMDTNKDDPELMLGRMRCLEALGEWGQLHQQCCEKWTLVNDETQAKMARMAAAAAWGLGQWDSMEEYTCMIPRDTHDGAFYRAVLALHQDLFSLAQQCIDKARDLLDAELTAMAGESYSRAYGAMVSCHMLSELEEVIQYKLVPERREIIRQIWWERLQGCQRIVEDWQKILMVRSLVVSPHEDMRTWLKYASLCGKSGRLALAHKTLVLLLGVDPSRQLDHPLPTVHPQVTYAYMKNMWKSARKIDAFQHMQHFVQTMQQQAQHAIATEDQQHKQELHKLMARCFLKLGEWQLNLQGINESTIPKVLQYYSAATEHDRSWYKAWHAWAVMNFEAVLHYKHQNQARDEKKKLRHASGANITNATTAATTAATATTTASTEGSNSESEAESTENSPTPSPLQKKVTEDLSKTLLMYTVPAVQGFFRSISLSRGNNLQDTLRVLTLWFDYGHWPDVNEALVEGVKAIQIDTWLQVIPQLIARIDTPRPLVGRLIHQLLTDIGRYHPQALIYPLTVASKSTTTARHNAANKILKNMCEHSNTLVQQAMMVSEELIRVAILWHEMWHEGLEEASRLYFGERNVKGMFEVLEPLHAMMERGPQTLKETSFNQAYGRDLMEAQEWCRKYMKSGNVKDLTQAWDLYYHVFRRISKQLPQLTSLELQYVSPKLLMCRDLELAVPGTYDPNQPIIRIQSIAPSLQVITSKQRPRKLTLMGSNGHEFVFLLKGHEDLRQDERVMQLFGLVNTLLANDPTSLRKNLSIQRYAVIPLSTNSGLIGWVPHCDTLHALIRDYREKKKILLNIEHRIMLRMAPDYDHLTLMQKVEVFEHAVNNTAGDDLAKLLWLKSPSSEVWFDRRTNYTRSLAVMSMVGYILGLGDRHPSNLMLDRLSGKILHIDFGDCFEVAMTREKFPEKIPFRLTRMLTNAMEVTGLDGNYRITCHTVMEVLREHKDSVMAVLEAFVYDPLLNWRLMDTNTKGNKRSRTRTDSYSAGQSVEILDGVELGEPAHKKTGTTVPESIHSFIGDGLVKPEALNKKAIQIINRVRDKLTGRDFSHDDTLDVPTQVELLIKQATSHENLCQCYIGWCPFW
Description: The mTOR kinase inhibitory activities of the 41 final virtual hits were determined using an ELISA-based activity assays that utilize a p70S6K-GST fusion protein as a specific mTOR substrate (see the Experimental Section for details). For the initial screening, all the activities were measured at a concentration of 10 μM.
mTOR activity was evaluated using a purified recombinant mTOR fragment (amino acids 1360-2549, CBA104-1KIT from Calbiochem). The K-LISA^TM mTOR activity kit is an ELISA-based activity assay for detection of phosphorylation of a p70S6K-GST fusion protein (a specific mTOR substrate) in the presence of ATP. The assay was optimized for use with mTOR as described in the Calbiochem protocol. The assay takes place in 96-well plates and can be divided into two phases: an mTOR kinase reaction phase and phosphorylated substrate detection phase.
In the kinase reaction phase, the following components were mixed in the same well: 5 μL of a solution containing 5 μg/mL mTOR substrate (recombinant p70S6K-GST fusion protein) in Tris-buffered saline (1 L TBS: sodium chloride 8.8 g, Tris Base 2.4 g, HCl 13 mL, Tween-20 10 ml, ddH2O), 5 μL ATP solution containing 20 mM ATP diluted in kinase assay buffer (pH 7.4, 0.01% Tween 20, 1 mM EDTA, 10 mM MgCl2, 1 mM DTT), […] of human recombinant mTOR kinase at the optimal concentration (80 ng/well) diluted in kinase assay buffer, and 5 μL of serial dilutions of inhibitors diluted in DMSO and kinase assay buffer. For each inhibitor concentration, the assay was run in triplicate. The final reaction volume was 100 μL per well, and samples incubated for 30 min at room temperature.
The kinase reaction was stopped by adding 10 μL kinase stop solution to each well. The phosphorylated substrate was detected using Anti-p70S6K-pT389 antibody, followed by detection with HRP-Antibody Conjugate and TMB Substrate. Then, ELISA stop solution was added to each well to stop the reaction, and relative mTOR inhibition activity was determined by reading the absorbance at dual wavelengths of 450/540 nm.

mTOR kinase = molecular target: mTOR kinase; set-up: method as in PMID 11575159; conditions: read-out: IC50 (mTOR kinase, reported); cited from earlier work
[2] = tested on: HeLa (human cervical cancer cell); assay: In vitro cell proliferation assay; assay type: cell-based; conditions: data not shown
Description: (§1) Most human breast cancer cells and cervical cancer cells become resistant to current chemotherapeutic drugs due to mutation of apoptotic mechanisms. It has been reported that MCF-7 cells are resistant to most of the drugs approved by the US Food and Drug Administration (FDA), including paclitaxel, doxorubicin, 5-fluorouracil, etoposide, and camptothecin[31][32].
(§2) Cell proliferation was measured with an MTS assay (CellTiter 96 Aqueous ONE Solution kit; Promega, Madison, USA). MCF-7, HeLa, MGC-803, C6 and U87 cells in log-phase were seeded (5 × 10^3 cells/well) in 96-well plates for 24 h, and then the medium were replaced with fresh medium containing different concentrations of compounds. […] After incubation for 48 h, the cells were further incubated with 20 μL of MTS for 1–4 h at 37 °C in a humidified incubator with 5% CO2. The absorbance at 490 nm was measured using a mircoplate reader (Model680, Bio-Rad; Hercules, CA, USA). The inhibition rate (%) was calculated as equation (1): […]
(§3) IC50 values were determined from the results of at least three independent tests and calculated from the inhibition curves.

C6 (Glioma cell) = assay: In vitro cell proliferation assay; assay type: cell-based; conditions: data not shown
Description: as §1, §2, §3

U87 cells (Glioma cell) = assay: In vitro cell proliferation assay; assay type: cell-based; conditions: data not shown
Description: as §1, §2, §3

[3] = tested on: MGC-803 (human gastric cancer); assay: In vitro cell proliferation assay; assay type: cell-based; conditions: data not shown
Description: as §1, §2, §3

[4] = tested on: MCF-7 (human breast cancer cell); assay: In vitro cell proliferation assay; assay type: cell-based; conditions: data not shown
Description: as §1, §2, §3

inhibition at 10 µM [1]	IC50 [1]	Compound	further results
22%	–	COc1cc(/C=C2/SC(=S)N(C)C2=O)ccc1Oc1nc(N2CCOCC2)nc(N2CCOCC2)n1 [Compound 6]	–
50%	14.4 ± 2.02 µM	c1coc(-c2nnc3sc(-c4cnccn4)nn23)c1 [Compound 21]	–
21%	–	NC(=O)c1nnn(Cc2cc(Cl)c(C(=O)c3ccc(Cl)cc3)c(Cl)c2)c1N [Compound 33]	–
30%	–	Nc1nc2ncc(-c3n[nH]cc3[N+](=O)[O-])cn2n1 [Compound 12]	–
55%	< 10 µM and 9.2 µM	Clc1ccc(-c2nnc3sc(-c4cnccn4)nn23)cc1 [Compound 20]	–
22%	–	COc1c(-c2ccoc2)oc2ccc(C)cc2c1=O [Compound 37]	–
91%	< 10 µM and 1.47 µM	CNc1cccc2c(NC(=S)NC(=O)c3cccc(C(=O)NC(C)=S)c3)cccc12 [Compound 40]	anti-proliferative activity [2]: do not show anti-proliferative activity; anti-proliferative activity (C6 (Glioma cell)): do not show anti-proliferative activity; anti-proliferative activity (U87 cells (Glioma cell)): do not show anti-proliferative activity; anti-proliferative activity [3]: do not show anti-proliferative activity; anti-proliferative activity [4]: do not show anti-proliferative activity
38%	28.6 ± 2.65 µM	COc1cccc(-c2nn3c(N)c(C#N)c(-c4cccnc4)nc3c2C)c1 [Compound 27]	–
36%	> 50 µM	COC(=O)c1sc2nc(-c3ccccc3)nc(N3CCOCC3)c2c1C [Compound 25]	–
31%	14.9 ± 1.01 µM	O=C(CCl)Nc1ccc(/C=C2\CCCn3c2nc2cc(NC(=O)CCl)ccc2c3=O)cc1 [Compound 36]	–
33%	> 50 µM	O=C(NC(=S)Nc1ccc2oc(-c3cccnc3)nc2c1)c1ccco1 [Compound 26]	–
23%	–	Cc1cc(=O)n2nc(N)c(/N=N/c3ccccc3)c2[nH]1 [Compound 9]	–
38%	> 50 µM	O=[N+]([O-])c1c(Nc2ccc3c(c2)OCO3)cc(N2CCOCC2)c2nonc12 [Compound 18]	–
